Results taken from PubChem BioAssay AID1963966 (Molecular Pharmacology Branch, DTP, NCI, 2024).

System: 935938-334-R-J1-PDC spheroids with HUVEC/MSC, viability
Test: Anticancer human tumor 935938-334-R-J1-PDC patient-derived small intestine adenocarcinoma cell line growth inhibition [PI3K]
Settings: for IC50: curve of first compound; for viability, T/C: stronger effect = lower value
How it was run: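 Combination activity was assessed by viability in multicellular tumor spheroids carrying HUVEC and MSC components. Agents were tested with PI3K inhibitors from a Cmax-based top dose (or 10 microM) downward in half-log increments.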

[1] = second compound 0.00316 µM, first compound 0.0316 µM
[2] = second compound 0.00316 µM, first compound 0.1 µM
[3] = second compound 0.00316 µM, first compound 0.316 µM
[4] = second compound 0.00316 µM, first compound 1 µM
[5] = second compound 0.00316 µM, first compound 3.16 µM
[6] = second compound 0.00316 µM, first compound 10 µM
[7] = second compound 0.01 µM, first compound 0.0316 µM
[8] = second compound 0.01 µM, first compound 0.1 µM
[9] = second compound 0.01 µM, first compound 0.316 µM
[10] = second compound 0.01 µM, first compound 1 µM
[11] = second compound 0.01 µM, first compound 3.16 µM
[12] = second compound 0.01 µM, first compound 10 µM
[13] = second compound 0.0316 µM, first compound 0.0316 µM
[14] = second compound 0.0316 µM, first compound 0.1 µM
[15] = second compound 0.0316 µM, first compound 0.316 µM
[16] = second compound 0.0316 µM, first compound 1 µM
[17] = second compound 0.0316 µM, first compound 3.16 µM
[18] = second compound 0.0316 µM, first compound 10 µM
[19] = second compound 0.1 µM, first compound 0.0316 µM
[20] = second compound 0.1 µM, first compound 0.1 µM
[21] = second compound 0.1 µM, first compound 0.316 µM
[22] = second compound 0.1 µM, first compound 1 µM
[23] = second compound 0.1 µM, first compound 3.16 µM
[24] = second compound 0.1 µM, first compound 10 µM
[25] = second compound 0.316 µM, first compound 0.0316 µM
[26] = second compound 0.316 µM, first compound 0.1 µM
[27] = second compound 0.316 µM, first compound 0.316 µM
[28] = second compound 0.316 µM, first compound 1 µM
[29] = second compound 0.316 µM, first compound 3.16 µM
[30] = second compound 0.316 µM, first compound 10 µM
[31] = second compound 1 µM, first compound 0.0316 µM
[32] = second compound 1 µM, first compound 0.1 µM
[33] = second compound 1 µM, first compound 0.316 µM
[34] = second compound 1 µM, first compound 1 µM
[35] = second compound 1 µM, first compound 3.16 µM
[36] = second compound 1 µM, first compound 10 µM
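Also: compound exposure lasted seven days before viability was read.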
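For viability, T/C in this document: percent of vehicle DMSO treated spheroid viability so 100% = untreated.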

Work on `C=CC(=O)N1CCN(c2nc(=O)n(-c3c(C)ccnc3C(C)C)c3nc(-c4c(O)cccc4F)c(F)cc23)C(C)C1` (centres undefined) + COc1c(OCCCN2CCOCC2)ccc2c3n(c(=NC(=O)c4cnc(N)nc4)nc12)CCN3 yielded an IC50 (second compound 0.00316 µM) of over 10 µM, an IC50 (second compound 0.01 µM) of over 10 µM and an IC50 (second compound 0.0316 µM) of over 10 µM. For the same molecule, the IC50 (second compound 0.1 µM) was 2.4 µM, the IC50 (second compound 0.316 µM) was under 0.0316 µM and the IC50 (second compound 1 µM) was under 0.0316 µM. For the same molecule, the viability, T/C [1] was 94%, the viability, T/C [2] was 108% and the viability, T/C [3] was 93.9%. The viability, T/C [4] was 91%, the viability, T/C [5] was 104% and the viability, T/C [6] was 109%. It also gave a viability, T/C [7] of 100%, a viability, T/C [8] of 96% and a viability, T/C [9] of 92.5%. It also gave a viability, T/C [10] of 94.9%, a viability, T/C [11] of 102% and a viability, T/C [12] of 93.2%. It also gave a viability, T/C [13] of 93.1%, a viability, T/C [14] of 83.5% and a viability, T/C [15] of 86.7%. It also gave a viability, T/C [16] of 71.7%, a viability, T/C [17] of 82.7% and a viability, T/C [18] of 65.9%. It also gave a viability, T/C [19] of 56.9%, a viability, T/C [20] of 47.5% and a viability, T/C [21] of 61.2%. It also gave a viability, T/C [22] of 49.3%, a viability, T/C [23] of 67% and a viability, T/C [24] of 33%. The viability, T/C [25] was 32.7%, the viability, T/C [26] was 31.7% and the viability, T/C [27] was 34.5%. For the same molecule, the viability, T/C [28] was 34.7%, the viability, T/C [29] was 28.1% and the viability, T/C [30] was 32.9%. For the same molecule, the viability, T/C [31] was 29.3%, the viability, T/C [32] was 38.8% and the viability, T/C [33] was 38.5%. It also gave a viability, T/C [34] of 33%, a viability, T/C [35] of 32.5% and a viability, T/C [36] of 44.1%.
With `CC(C)NCC(C(=O)N1CCN(c2ncnc3c2C(C)CC3O)CC1)c1ccc(Cl)cc1` (centres undefined) + COc1c(OCCCN2CCOCC2)ccc2c3n(c(=NC(=O)c4cnc(N)nc4)nc12)CCN3 the IC50 (second compound 0.00316 µM) was 5.66 µM, the IC50 (second compound 0.01 µM) was 2.73 µM and the IC50 (second compound 0.0316 µM) was 1.31 µM. For the same molecule, the IC50 (second compound 0.1 µM) was under 0.0316 µM, the IC50 (second compound 0.316 µM) was under 0.0316 µM and the IC50 (second compound 1 µM) was under 0.0316 µM. For the same molecule, the viability, T/C [1] was 94.5%, the viability, T/C [2] was 99% and the viability, T/C [3] was 84.8%. For the same molecule, the viability, T/C [4] was 65.5%, the viability, T/C [5] was 62.5% and the viability, T/C [6] was 41.5%. It also gave a viability, T/C [7] of 85.5%, a viability, T/C [8] of 106% and a viability, T/C [9] of 82%. It also gave a viability, T/C [10] of 61.1%, a viability, T/C [11] of 54.5% and a viability, T/C [12] of 39.8%. The viability, T/C [13] was 84.2%, the viability, T/C [14] was 67.4% and the viability, T/C [15] was 68%. For the same molecule, the viability, T/C [16] was 48.5%, the viability, T/C [17] was 45.5% and the viability, T/C [18] was 29.5%. It also gave a viability, T/C [19] of 48.3%, a viability, T/C [20] of 49.4% and a viability, T/C [21] of 39.3%. It also gave a viability, T/C [22] of 44.3%, a viability, T/C [23] of 40.8% and a viability, T/C [24] of 30.4%. The viability, T/C [25] was 30.6%, the viability, T/C [26] was 40.4% and the viability, T/C [27] was 29.8%. The viability, T/C [28] was 33.7%, the viability, T/C [29] was 26.7% and the viability, T/C [30] was 30.3%. It also gave a viability, T/C [31] of 36.6%, a viability, T/C [32] of 34.7% and a viability, T/C [33] of 37%. It also gave a viability, T/C [34] of 34.2%, a viability, T/C [35] of 30.1% and a viability, T/C [36] of 33.2%.
